{"source": "patent EP0357495A2", "about": "“3'Azido-3'-deoxythymidine (AZT) derivatives active against the AIDS virus” (IRE-CELLTARG S.A., priority 1988, dated 1990)", "key": {"[1]": {"system": "cellules de la moëlle osseuse", "assay": "toxicity on bone marrow cells (colony count, day 7)", "format": "cell-based", "conditions": "bone marrow cells of a healthy donor, semi-solid medium with GMCSF, colonies at day 7", "text": "Des cellules ont été isolées à partir d'un prélèvement de moëlle osseuse chez un donneur sain. Elles ont été mises en culture en milieu semi-solide (agar) additionné de Granulocyte-Macrophage-Colony Stimulating Factor (GMCSF) en présence d'AZT et d'AZT 5′hémisuccinyl à différentes concentrations. Le nombre de cellules ayant donné naissance à une colonie a été déterminé par comptage de colonies au jour 7.\nLa toxicité du dérivé est de l'ordre de 10 fois plus faible que celle de l'AZT."}, "[2]": {"system": "cellules MT4", "assay": "cytotoxicity on non-infected MT4 cells (MTT method)", "format": "cell-based", "procedure": "(§1) Les produits (AZT, AZT-5′ hémisuccinyl et AZT 5′-leucyl) à différentes concentrations ont été mis en présence de cellules MT4 (4 X 10⁴ cellules par puits de microtray) infectées ou non avec 100 CCID₅₀ de virus HIV-1 (souche HTLV-IIIB). La CCID₅₀ représente la quantité de virus à rajouter pour obtenir une infection de 50 % des cellules (dose infectieuse de cellules en culture 50).\n(§2) Après cinq jours d'incubation à 37°C, le nombre de cellules vivantes a été déterminé par la méthode au MTT, basée sur la réduction par les cellules vivantes du 3′-(4, 5-diméthylthiazol-2-yl)-2,5-diphényltétrazoliumbromide, jaune, en formazan, bleu. L'activité antivirale et la cytotoxicité sont exprimées sous forme de ED₅₀ et de CD₅₀. La CD₅₀ représente la dose qui tue 50 % des cellules non infectées et la ED₅₀ représente la dose qui protège 50 % des cellules de l'infection virale.\n(§3) En effet l'AZT entre en compétition avec la thymidine au niveau des enzymes de phosphorylation qui vont le transformer en AZT triphosphate (AZT TP) qui est la forme active du produit. Un excès de thymidine réduit donc très fortement l'activité de l'AZT, ce qui se traduit par une ED₅₀ plus élevée. Par conséquent, si le dérivé de l'AZT doit son activité à la libération d'AZT qui à son tour est phosphorylé en AZT TP, un excès de thymidine aura également pour effet d'élever la ED₅₀ du dérivé. La thymidine étant cytotoxique à la concentration utilisée, il est nécessaire de rajouter de la 2′déoxycytidine pour empêcher cette toxicité.\n(§4) Les protocoles expérimentaux sont ceux décrits à l'exemple 9 3.1) et 9 3)."}, "[3]": {"system": "virus HIV-1 (souche HTLV-IIIB)", "assay": "viral antigen expression in HIV-infected HUT-78 cells (indirect immunofluorescence, laser cytofluorescence)", "format": "cell-based", "text": "Les produits (AZT et AZT-5′ hémisuccinyl) à différentes concentrations ont été mis en présence de cellules HUT-78 infectées par le virus HIV-1 (souche HTLV-IIIB) à une multiplicité d'infection de 0.4. Tous les quatre jours, 3/4 du milieu ont été remplacés par du milieu frais. Après douze jours, l'expression des antigènes viraux a été mesurée par immunofluorescence indirecte à l'aide d'un sérum anti-HIV-I positif, et par cytofluorescence laser, tel que décrit par Pauwels et al. J. Virol. Meth. 16, 171-185 (1987).\nDes résultats sont exprimés dans le tableau 3 en ED₅₀ et en pourcentage d'effet protecteur selon la formule : [formula] TABLEAU 3"}, "[4]": {"system": "virus HIV-1 (souche HTLV-IIIB)", "assay": "anti-HIV activity in HIV-infected MT4 cells (MTT method)", "format": "cell-based", "procedure": "as §1, §2\nas §3, with “La même expérience que celle décrite ci-avant (exemple 9.1)) a été réalisée, mais en présence de thymidine 250 µM et de 2′déoxycytidine 500 µM. En” for “En”\nas §4"}, "[5]": {"system": "virus MSV Moloney sarcoma virus", "assay": "in vivo activity in MSV-infected NMRI mice (survival, tumour appearance)", "set-up": "species or system souris NMRI", "procedure": "L'AZT et ses dérivés selon l'invention ont été testés in vivo chez la souris NMRI (souriceaux de 2 jours) infectée par le virus MSV Moloney sarcoma virus). La drogue est adminitrée i.p. pendant 5 jours dans un volume de 25 µl/g de poids corporel. Le virus est inoculé dans la cuisse gauche de l'animal deux heures après la première administration de drogue. Les animaux sont contrôlés tous les jours selon trois critères : survie, apparition de la tumeur et poids (toxicité) pendant 50 jours. Les résultats sont repris au tableau 7 et dans les figures 8 à 11. [formula]\nOn entend par temps médian de survie le temps où la moitié des souris sont encore vivantes. [formula] Tableau 7"}, "[6]": {"conditions": "tableau 4, MT-4, with thymidine (250µM) + 2′déoxy-cytidine (500 µM)"}, "[7]": {"conditions": "tableau 4, MT-4, without thymidine / 2′déoxycytidine"}, "[8]": {"conditions": "AZT-5′ hémisuccinyl 6.8 mg/kg/jour i.p. 5 days"}, "[9]": {"conditions": "AZT-5′ hémisuccinyl 34 mg/kg/jour i.p. 5 days"}, "[10]": {"conditions": "AZT-5′ hémisuccinyl 170 mg/kg/jour i.p. 5 days"}}, "data": [{"smiles": "Cc1cn([C@H]2C[C@H](N=[N+]=[N-])[C@@H](COC(=O)CCC(=O)O)O2)c(=O)[nH]c1=O", "note": "[AZT 5′hémisuccinyl, 5′-hémisuccinyl-3′-azido-3′-déoxythymidine]", "values": [{"measurement": "toxicité plus faible que celle de l'AZT", "setting": "[1]", "result": "~10", "unit": "fois"}, {"measurement": "toxicité (compared with AZT, in words)", "setting": "[2]; comparison with AZT", "result": "considérablement inférieure"}, {"measurement": "CD₅₀", "setting": "[2]; tableau 2, non-infected MT4 cells, 5 days at 37°C, dose that kills 50 % of cells", "result": 196, "unit": "µM"}, {"measurement": "CD₅₀", "setting": "[2]; [6]", "result": 362, "unit": "µM"}, {"measurement": "CD₅₀", "setting": "[2]; [7]", "result": 295, "unit": "µM"}, {"measurement": "Pourcentage d'effet protecteur", "setting": "[3]; HUT-78, day 12, concentration 0.022 µM", "result": -23, "unit": "%"}, {"measurement": "Pourcentage d'effet protecteur", "setting": "[3]; HUT-78, day 12, concentration 0.11 µM", "result": 48, "unit": "%"}, {"measurement": "Pourcentage d'effet protecteur", "setting": "[3]; HUT-78, day 12, concentration 0.54 µM", "result": 21, "unit": "%"}, {"measurement": "Pourcentage d'effet protecteur", "setting": "[3]; HUT-78, day 12, concentration 2.71 µM", "result": 72, "unit": "%"}, {"measurement": "ED₅₀", "setting": "[3]; HUT-78 cells, multiplicity of infection 0.4, day 12", "result": "ED₅₀ AZT-5′hémisuccinyl = 1,77 µM"}, {"measurement": "activité (compared with AZT, in words)", "setting": "[4]; comparison with AZT", "result": "comparable à celle de l'AZT"}, {"measurement": "indice de sélectivité", "setting": "[4]; de l'ordre de", "result": "~28 000"}, {"measurement": "ED₅₀", "setting": "[4]; tableau 2, MT4 cells infected with 100 CCID₅₀ HIV-1, 5 days at 37°C, dose that protects 50 % of cells", "result": ".0069 µM"}, {"measurement": "SI", "setting": "[4]; tableau 2, indice de sélectivité = CD₅₀ sur ED₅₀, MT4 cells", "result": 28543}, {"measurement": "SI dérivé/SI AZT", "setting": "[4]; tableau 2, ratio within the same experiment, MT4 cells", "result": 4.7}, {"measurement": "ED₅₀", "setting": "[4]; [6]", "result": "6,8399 µM"}, {"measurement": "SI", "setting": "[4]; [6]", "result": 53}, {"measurement": "ED₅₀", "setting": "[4]; [7]", "result": "0,0523 µM"}, {"measurement": "SI", "setting": "[4]; [7]", "result": 5633}, {"measurement": "% ILS", "setting": "[5]; [8]", "result": 20.2, "unit": "%"}, {"measurement": "% ITL", "setting": "[5]; [8]", "result": 52.4, "unit": "%"}, {"measurement": "Temps moyen d'apparition de la tumeur", "setting": "[5]; [8]", "result": 7.3, "unit": "jours"}, {"measurement": "Temps moyen de survie", "setting": "[5]; [8]", "result": 11.5, "unit": "jours"}, {"measurement": "Temps médian d'apparition de la tumeur", "setting": "[5]; [8]", "result": 6.8, "unit": "jours"}, {"measurement": "Temps médian de survie", "setting": "[5]; [8]", "result": 11.0, "unit": "jours"}, {"measurement": "% ILS", "setting": "[5]; [9]", "result": ">446", "unit": "%"}, {"measurement": "% ITL", "setting": "[5]; [9]", "result": 145, "unit": "%"}, {"measurement": "Temps moyen d'apparition de la tumeur", "setting": "[5]; [9]", "result": ">25.5", "unit": "jours"}, {"measurement": "Temps moyen de survie", "setting": "[5]; [9]", "result": ">41", "unit": "jours"}, {"measurement": "Temps médian d'apparition de la tumeur", "setting": "[5]; [9]", "result": 11, "unit": "jours"}, {"measurement": "Temps médian de survie", "setting": "[5]; [9]", "result": ">50", "unit": "jours"}, {"measurement": "% ILS", "setting": "[5]; [10]", "result": 42.1, "unit": "%"}, {"measurement": "% ITL", "setting": "[5]; [10]", "result": 257, "unit": "%"}, {"measurement": "Temps moyen d'apparition de la tumeur", "setting": "[5]; [10]", "result": ">23", "unit": "jours"}, {"measurement": "Temps moyen de survie", "setting": "[5]; [10]", "result": ">22.7", "unit": "jours"}, {"measurement": "Temps médian d'apparition de la tumeur", "setting": "[5]; [10]", "result": 16, "unit": "jours"}, {"measurement": "Temps médian de survie", "setting": "[5]; [10]", "result": 13, "unit": "jours"}]}]}
